# ChEMBL document CHEMBL5096216, “Rational Design, Synthesis, and Biological Evaluation of Novel S1PR2 Antagonists for Reversing 5-FU-Resistance in Colorectal Cancer” (J Med Chem, 2022)
# The source made the active and inactive calls. The rule behind the calls is not given here.
# Legend:
# SW620/5-FU [1] = assay: Antitumor activity against human SW620/5-FU cells xenografted in nude mouse assessed as tumor volume at 10 mg/kg/day, iv measured on day 1 in presence of 5-FU (reference value: 105 +/- 14 mm3); format: functional; conditions: time 1 day
# HCT-116 = assay: Reversal of 5-FU resistance in human HCT-116 cells overexpressing DPD assessed as reduction in cell viability incubated for 48 hrs in presence of 5-FU by MTT assay; format: functional, cell-based; conditions: HCT-116, 48 h
# SW620/5-FU [2] = assay: Induction of apoptosis in human SW620/5-FU cells assessed as late apoptotic cells at 20 uM incubated for 24 hrs by Annexin-V/PI staining based flow cytometry assay (reference value: 2.97%); format: functional
# HT-29 [3] = assay: Reversal of 5-FU resistance in human HT-29 cells assessed as reduction in cell viability incubated for 48 hrs in presence of 5-FU by MTT assay; format: functional, cell-based; conditions: HT-29, 48 h
# SW620/5-FU [4] = assay: Reversal of 5-FU resistance in human SW620/5-FU cells assessed as reduction in cell viability incubated for 48 hrs in presence of 5-FU by MTT assay; format: functional, cell-based
# HT-29 [5] = assay: Antiproliferative activity against human HT-29 cells assessed as reduction in cell viability incubated for 48 hrs by MTT assay; format: functional, cell-based; conditions: HT-29, 48 h
# SW620/5-FU [6] = assay: Induction of apoptosis in human SW620/5-FU cells assessed as viable cells at 10 uM incubated for 24 hrs by Annexin-V/PI staining based flow cytometry assay (reference value: 94.3%); format: functional; conditions: read-out: Activity
# SW620/5-FU [7] = assay: Induction of apoptosis in human SW620/5-FU cells assessed as early apoptotic cells at 10 uM incubated for 24 hrs by Annexin-V/PI staining based flow cytometry assay (reference value: 2.73%); format: functional
# SW620/5-FU [8] = assay: Antitumor activity against human SW620/5-FU cells xenografted in nude mouse assessed as tumor growth inhibition at 1 mg/kg/day, iv in presence of 5-FU; format: functional; conditions: read-out: TGI
# [9] = Induction of intracellular 5-FU accumulation in human SW620/5-FU cells measured after 6 hrs by HPLC analysis (reference value: 4.3 microg/ml); format: functional
# SW620/5-FU [10] = assay: Antitumor activity against human SW620/5-FU cells xenografted in nude mouse assessed as tumor volume at 10 mg/kg/day, iv measured on day 15 in presence of 5-FU (reference value: 1991 +/- 469 mm3); format: functional; conditions: time 15 day
# [11] = Metabolic stability in rat liver homogenate assessed as compound remaining at 1 mg/ml measured after 48 hrs by HPLC analysis; format: ADME, tissue-based; conditions: read-out: Stability
# SW620/5-FU [12] = assay: Induction of apoptosis in human SW620/5-FU cells assessed as necrotic cells at 20 uM incubated for 24 hrs in presence of 5-FU by Annexin-V/PI staining based flow cytometry assay (reference value: 0%); format: functional
# SW620/5-FU [13] = assay: Upregulation of H3K27me3 expression in human SW620/5-FU cells incubated for 12 hrs by Western blot analysis; format: functional, cell-based; conditions: dose 2.5-20 µM, DDE = dose-dependent effect
# SW620/5-FU [14] = assay: Induction of apoptosis in human SW620/5-FU cells assessed as early apoptotic cells at 10 uM incubated for 24 hrs in presence of 5-FU by Annexin-V/PI staining based flow cytometry assay (reference value: 2.73%); format: functional
# SW620/5-FU [15] = assay: Induction of apoptosis in human SW620/5-FU cells assessed as necrotic cells at 10 uM incubated for 24 hrs by Annexin-V/PI staining based flow cytometry assay (reference value: 0%); format: functional
# SW620/5-FU [16] = assay: Antitumor activity against human SW620/5-FU cells xenografted in nude mouse assessed as tumor volume at 1 mg/kg/day, iv measured on day 15 in presence of 5-FU (reference value: 1991 +/- 469 mm3); format: functional; conditions: time 15 day
# SW620/5-FU [17] = assay: Induction of apoptosis in human SW620/5-FU cells assessed as late apoptotic cells at 10 uM incubated for 24 hrs in presence of 5-FU by Annexin-V/PI staining based flow cytometry assay (reference value: 2.97%); format: functional
# SW620/5-FU [18] = assay: Induction of apoptosis in human SW620/5-FU cells assessed as necrotic cells at 10 uM incubated for 24 hrs in presence of 5-FU by Annexin-V/PI staining based flow cytometry assay (reference value: 0%); format: functional
# SW620/5-FU [19] = assay: Inhibition of FBAL stimulated DPD expression in human SW620/5-FU cells at 10 uM incubated for 72 hrs by Western blot analysis; format: functional, cell-based
# HT-29 [20] = assay: Reversal of 5-FU resistance in human HT-29 cells assessed as fold reduction in 5-Fluorouracil IC50 at 5 uM incubated for 48 hrs; format: functional
# [21] = Metabolic stability in rat plasma assessed as compound remaining at 1 mg/ml measured after 48 hrs by HPLC analysis; format: ADME, cell-free; conditions: read-out: Stability
# SW620/5-FU [22] = assay: Reversal of 5-FU resistance in human SW620/5-FU cells assessed as fold reduction in 5-Fluorouracil IC50 at 5 uM incubated for 48 hrs; format: functional
# SW620/5-FU [23] = assay: Antitumor activity against human SW620/5-FU cells xenografted in nude mouse assessed as tumor volume at 5 mg/kg/day, iv measured on day 15 in presence of 5-FU (reference value: 1991 +/- 469 mm3); format: functional; conditions: time 15 day
# SW620/5-FU [24] = assay: Antitumor activity against human SW620/5-FU cells xenografted in nude mouse assessed as tumor growth inhibition at 10 mg/kg/day, iv in presence of 5-FU; format: functional; conditions: read-out: TGI
# SW620/5-FU [25] = assay: cells; conditions: Homo sapiens, 48 h
# Mus musculus = assay: In vivo inhibition of tumor DPD expression in human SW620/5-FU cells xenografted in nude mouse at 1 to 10 mg/kg/day by Western blot analysis; format: functional, organism-based; conditions: dose 1-10 mg/kg/day
# SW620/5-FU [26] = assay: Antiproliferative activity against human SW620/5-FU cells assessed as reduction in cell viability incubated for 48 hrs by MTT assay; format: functional, cell-based
# SW620/5-FU [27] = assay: Downregulation of JMJD3 expression in human SW620/5-FU cells incubated for 12 hrs by Western blot analysis; format: functional, cell-based; conditions: dose 2.5-20 µM, DDE = dose-dependent effect
# SW620/5-FU [28] = assay: Reversal of 5-FU resistance in human SW620/5-FU cells assessed as fold reduction in 5-Fluorouracil IC50 at 2 uM incubated for 48 hrs; format: functional
# HT-29 [29] = assay: Upregulation of H3K27me3 expression in 5-FU resistant human HT-29 cells incubated for 12 hrs by Western blot analysis; format: functional, cell-based; conditions: dose 2.5-20 µM, DDE = dose-dependent effect
# SW620/5-FU [30] = assay: Induction of apoptosis in human SW620/5-FU cells assessed as necrotic cells at 20 uM incubated for 24 hrs by Annexin-V/PI staining based flow cytometry assay (reference value: 0%); format: functional
# SW620/5-FU [31] = assay: Induction of apoptosis in human SW620/5-FU cells assessed as viable cells at 20 uM incubated for 24 hrs by Annexin-V/PI staining based flow cytometry assay (reference value: 94.3%); format: functional; conditions: read-out: Activity
# [32] = Toxicity in nude mouse xenografted with human SW620/5-FU cells assessed as morphological changes in liver at 1 to 10 mg/kg/day, iv by hematoxylin-eosin staining based analysis; format: organism-based; conditions: in vivo, dose 1-10 mg/kg/day
# SW620/5-FU [33] = assay: Induction of apoptosis in human SW620/5-FU cells assessed as early apoptotic cells at 20 uM incubated for 24 hrs by Annexin-V/PI staining based flow cytometry assay (reference value: 2.73%); format: functional
smiles,measurement,setting,value
CCC(CC)CN1CCN(C(=O)Nc2cc(Oc3ccc(F)cc3)cc(Oc3ccc(C(=O)NC)cc3)c2)CC1,Activity,SW620/5-FU [1],104 mm3
same,IC50,HCT-116,6.42 µM
same,Activity,SW620/5-FU [2],4.01%
same,IC50,HT-29 [3],2.51 µM
same,IC50,SW620/5-FU [4],1.99 µM
same,IC50,HT-29 [5],> 100 µM
same,viability at 10 µM,SW620/5-FU [6],93.8%
same,Activity,SW620/5-FU [7],3.41%
same,inhibition in vivo at 1 mg/kg/day,SW620/5-FU [8],49.5%
same,Activity,[9],12.2 µg/mL
same,Activity,SW620/5-FU [10],521 mm3
same,"remaining at 48 h, 1 mg/ml",[11],68.9%
same,Activity,SW620/5-FU [12],0.076%
same,Activity,SW620/5-FU [13],Dde
same,Activity,SW620/5-FU [14],4.41%
same,Activity,SW620/5-FU [15],0.042%
same,Activity,SW620/5-FU [16],1006 mm3
same,Activity,SW620/5-FU [17],7.76%
same,Activity,SW620/5-FU [18],0.17%
same,inhibition,SW620/5-FU [19],Active
same,fold change (FC),HT-29 [20],127
same,"remaining at 48 h, 1 mg/ml",[21],93%
same,fold change (FC),SW620/5-FU [22],88
same,Activity,SW620/5-FU [23],662 mm3
same,inhibition in vivo at 10 mg/kg/day,SW620/5-FU [24],73.8%
same,IC50,SW620/5-FU [25],17.6 µM
same,inhibition,Mus musculus,Active
same,IC50,SW620/5-FU [26],> 100 µM
same,Activity,SW620/5-FU [27],Dde
same,fold change (FC),SW620/5-FU [28],42
same,Activity,HT-29 [29],Dde
same,Activity,SW620/5-FU [30],0.086%
same,viability at 20 µM,SW620/5-FU [31],92.1%
same,Activity,[32],Non-Toxic
same,Activity,SW620/5-FU [33],3.76%
